Where two headings read alike, the source gives them in different places.
Key:
wild type HBV = assay: Anti-HBV assay in AD-38 cell line (HBV in culture supernatant); format: cell-based; conditions: for EC50: read-out: Anti-HBV activity EC50; for EC90: read-out: Anti-HBV activity EC90
Protocol: The anti-HBV activity of the compounds was determined by treating the AD-38 cell line carrying wild type HBV under the control of tetracycline (see Ladner S. K., Otto M. J., Barker C. S., Zaifert K., Wang G. H., Guo J. T., Seeger C. & King R. W. Antimicrob. Agents Chemother. 1997, 41, 1715-20). Removal of tetracycline from the medium [Tet (−)] results in the production of HBV. The levels of HBV in the culture supernatant fluids from cells treated with the compounds were compared with that of the untreated controls. Control cultures with tetracycline [Tet (+)] were also maintained to determine the basal levels of HBV expression. 3TC was included as positive control.
The median effective concentrations (EC50) ranges of several of the compounds described herein against HBV are shown in Table 3: […]

human PBM = assay: Cellular toxicity assay in human PBM cells; format: cell-based; conditions: human PBM cells; read-out: Cytotoxicity; CC50 (μM) PBM
Protocol: (§1) The toxicity of the compounds was assessed in Vero, human PBM, CEM (human lymphoblastoid), MT-2, and HepG2 cells, as described previously (see Schinazi R. F., Sommadossi J.-P., Saalmann V., Cannon D. L., Xie M.-Y., Hart G. C., Smith G. A. & Hahn E. F. Antimicrob. Agents Chemother. 1990, 34, 1061-67). Cycloheximide was included as positive cytotoxic control, and untreated cells exposed to solvent were included as negative controls. The cytotoxicity IC50 was obtained from the concentration-response curve using the median effective method described previously (see Chou T.-C. & Talalay P. Adv. Enzyme Regul. 1984, 22, 27-55; Belen'kii M. S. & Schinazi R. F. Antiviral Res. 1994, 25, 1-11).

HepG2 cells = assay: Cellular toxicity assay in HepG2 cells; format: cell-based; conditions: HepG2 cells; read-out: Cytotoxicity; CC50 (μM) HepG2
Protocol: as §1

Glutathione levels (GSH) = assay: Glutathione levels in Huh7 cells (GSH-Glo Glutathione Assay); format: cell-based
Protocol: Glutathione levels (GSH) were measured in Huh7 cells after 22 h treatment with 10 μM CAMs (GSH-Glo™ Glutathione Assay—Promega). Treatment of Huh7 with 10 μM positive control, L-buthionine-sulfoximine, reduced cellular GSH levels by 58% (data not shown); Samples were tested in triplicates.

[1] = Cellular toxicity assay in Vero cells; format: cell-based; conditions: African green monkey
Protocol: as §1

[2] = Cellular toxicity assay in CEM cells; format: cell-based, human; conditions: human
Protocol: as §1

[3] = Cellular toxicity assay in human PBM cells; format: cell-based
Protocol: as §1

[4] = Cellular toxicity assay in HepG2 cells; format: cell-based; conditions: human
Protocol: as §1

[5] = Hepatitis B virus, AD-38 cell line, Tet (-)
[6] = Vero cells, read-out: Cytotoxicity, CC50 (μM) VERO
[7] = CEM lymphoblastoid cells, CEM cells, read-out: Cytotoxicity, CC50 (μM) CEM
[8] = human, human PBM cells, read-out: Cytotoxicity, CC50 (μM) PBM
[9] = HepG2 cells, read-out: Cytotoxicity, CC50 (μM) HepG2

| Compound | EC50 (wild type HBV; [5]) [µM] | EC90 (wild type HBV; [5]) [µM] | CC50 [1, 6] [µM] | CC50 [2, 7] [µM] | CC50 [3, 8] [µM] | CC50 [4, 9] [µM] | other results |
| --- | --- | --- | --- | --- | --- | --- | --- |
| 4,4′-(2,2′-(((Tetradecane-1,14-diylbis(1H-1,2,3-triazole-1,4-diyl))bis(methylene)) bis(azanediyl)) bis(2-oxoacetyl))bis(N-(3,4-difluorophenyl)-1,3,5-trimethyl-1H-pyrrole-2-carboxamide) [Compound 80] | – | – | – | – | – | – | EC50 (wild type HBV; AD-38 cell line, Tet (-)): 0.001 to 0.01 µM; CC50 (human PBM): > 100 µM; CC50 (HepG2 cells): > 100 µM |
| CCCCS(=N)(=O)CCC(N)C(=O)O [L-buthionine-sulfoximine, reference compound] | – | – | – | – | – | – | reduction of cellular GSH levels (Glutathione levels (GSH); 10 μM positive control): 58% |
| CCOC(=O)C1=C(CNCc2cn(CCCCCCCCCCCCn3cc(CNC(=O)C(=O)c4c(C)c(C(=O)Nc5ccc(F)c(F)c5)n(C)c4C)nn3)nn2)NC(c2nccs2)=NC1c1ccc(F)cc1Br (stereo not drawn) [Compound 23, Ethyl 4-(2-bromo-4-fluorophenyl)-6-((((1-(12-(4-((2-(5-((3,4-difluorophenyl)-carbamoyl)-1,2,4-trimethyl-1H-pyrrol-3-yl)-2-oxoacetamido)methyl)-1H-1,2,3-triazol-1-yl)dodecyl)-1H-1,2,3-triazol-4-yl)methyl)amino)methyl)-2-(thiazol-2-yl)-1,4-dihydropyrimidine-5-carboxylate] | 0.01 to 0.1 | 0.1 to 1 | > 100 | 14 | > 100 | 63 | – |
| Cc1c(C(=O)C(=O)NCCCCO[P@@](=O)(N[C@@H](C)C(=O)OC(C)C)Oc2ccccc2)c(C)n(C)c1C(=O)Nc1ccc(F)c(F)c1 [Compound 58, Isopropyl ((S)-(4-(2-(5-((3,4-difluorophenyl)carbamoyl)-1,2,4-trimethyl-1H-pyrrol-3-yl)-2-oxoacetamido)butoxy)(phenoxy)phosphoryl)-L-alaninate] | – | – | 12 | – | – | 29 | EC50 (wild type HBV; Hepatitis B virus): 0.1 to 1 µM; EC90 (wild type HBV; Hepatitis B virus): 1 to 10 µM; CC50 ([2]; CEM cells, read-out: Cytotoxicity, CC50 (μM) CEM): 10 µM; CC50 ([3]; human PBM cells, read-out: Cytotoxicity, CC50 (μM) PBM): 7 µM |
| Cc1c(C(=O)C(=O)NCCCN(CCCNC(=O)C(=O)c2c(C)c(C(=O)Nc3ccc(F)c(F)c3)n(C)c2C)CCCNC(=O)C(=O)c2c(C)c(C(=O)Nc3ccc(F)c(F)c3)n(C)c2C)c(C)n(C)c1C(=O)Nc1ccc(F)c(F)c1 [Compound 16a, 4,4′,4″-(2,2′,2″-((Nitrilotris(propane-3,1-diyl))tris(azanediyl))tris(2-oxoacetyl))tris(N-(3,4-difluorophenyl)-1,3,5-trimethyl-1H-pyrrole-2-carboxamide)] | 0.1 to 1 | 1 to 10 | 9 | > 100 | > 100 | > 100 | – |
| C#CCn1c(C)c(C(=O)C(=O)NC(C#C)(CC)CC)c(C)c1C(=O)Nc1ccc(F)c(F)c1 [Compound 115, N-(3,4-Difluorophenyl)-4-(2-((3-ethylpent-1-yn-3-yl)amino)-2-oxoacetyl)-3,5-dimethyl-1-(prop-2-yn-1-yl)-1H-pyrrole-2-carboxamide] | 0.0001 to 0.001 | – | – | – | 45 | 35 | GSH levels relative to untreated control (Glutathione levels (GSH); 22 h treatment): > 10 µM; inhibition at 10 µM (Glutathione levels (GSH); Homo sapiens, Huh-7, read-out: GSH levels relative to untreated control (% inhibition at 10 μM), 22 h, 10 μM): < 1% |
| Cc1c(C(=O)C(=O)NCc2cn(CCOCCOCCOCC(CO)COCCOCCOCCn3cc(CNC(=O)C(=O)c4c(C)c(C(=O)Nc5ccc(F)c(F)c5)n(C)c4C)nn3)nn2)c(C)n(C)c1C(=O)Nc1ccc(F)c(F)c1 [Compound 101, 4,4′-(2,2′-((((11-(Hydroxymethyl)-3,6,9,13,16,19-hexaoxahenicosane-1,21-diyl)bis(1H-1,2,3-triazole-1,4-diyl))bis(methylene))bis(azanediyl))bis(2-oxoacetyl))bis(N-(3,4-difluorophenyl)-1,3,5-trimethyl-1H-pyrrole-2-carboxamide)] | – | – | – | – | – | – | EC50 (wild type HBV; AD-38 cell line, Tet (-)): 0.01 to 0.1 µM; CC50 (human PBM): > 100 µM; CC50 (HepG2 cells): > 100 µM |
| Fc1ccc(C2N=C(c3ccccn3)NC(CN3CCOCC3)=C2C#CC2CC2)c(Cl)c1 (stereo not drawn) [Compound 8, 4-((6-(2-Chloro-4-fluorophenyl)-5-(cyclopropylethynyl)-2-(pyridin-2-yl)-3,6-dihydropyrimidin-4-yl)methyl)morpholine] | 0.1 to 1 | 0.1 to 1 | 49 | 20 | 62 | 36 | – |
| Fc1ccc(C2N=C(c3nccs3)NC(CN3CCOCC3)=C2C#CC2CC2)c(Br)c1 (stereo not drawn) [Compound 17, 4-((6-(2-Bromo-4-fluorophenyl)-5-(cyclopropylethynyl)-2-(thiazol-2-yl)-3,6-dihydropyrimidin-4-yl)methyl)morpholine] | 0.01 to 0.1 | 0.1 to 1 | 23 | 17 | 19 | 81 | – |
| Cc1c(C(=O)C(=O)NCCCB(O)O)c(C)n(C)c1C(=O)Nc1ccc(F)c(F)c1 [Compound 64, (3-(2-(5-((3,4-Difluorophenyl)carbamoyl)-1,2,4-trimethyl-1H-pyrrol-3-yl)-2-oxoacetamido)propyl)boronic acid] | 0.01 to 0.1 | 0.01 to 0.1 | 76 | 26 | 62 | 98 | – |
| O=S(=O)(NC1CC2=C(C#CC3CC3)C(c3ccc(F)cc3Cl)N=C(c3nccs3)N2C1)C1CC1 (stereo not drawn) [Compound 45, N-(3-(2-Chloro-4-fluorophenyl)-4-(cyclopropylethynyl)-1-(thiazol-2-yl)-3,5,6,7-tetrahydro-pyrrolo[1,2-c]pyrimidin-6-yl)cyclopropanesulfonamide] | 0.01 to 0.1 | 0.1 to 1 | > 100 | 24 | 75 | > 100 | – |
| O=C(Nc1ccc(F)c(Cl)c1)N1[C@@H]2CC[C@H]1c1c(-c3cscn3)n[nH]c1C2 [Compound 33, (4S,7R)—N-(3-Chloro-4-fluorophenyl)-3-(thiazol-4-yl)-1,4,5,6,7,8-hexahydro-4,7-epiminocyclo hepta[c]pyrazole-9-carboxamide] | 0.1 to 1 | 1 to 10 | – | – | – | – | CC50 [1]: 61 µM; CC50 [2]: 32 µM; CC50 ([3]; human): 32 µM; CC50 [4]: 19 µM |
| CCOC(=O)C1=C(CNCc2cn(CCCCCCCCn3cc(CNCC4=C(C(=O)OCC)C(c5ccc(F)cc5Br)N=C(c5nccs5)N4)nn3)nn2)NC(c2nccs2)=NC1c1ccc(F)cc1Br (stereo not drawn) [Compound 17c, Diethyl 6,6′-((((octane-1,8-diylbis(1H-1,2,3-triazole-1,4-diyl))bis(methylene))bis-(azanediyl))bis(methylene))bis(4-(2-bromo-4-fluorophenyl)-2-(thiazol-2-yl)-1,4-dihydropyrimidine-5-carboxylate)] | 1 to 10 | 1 to 10 | > 100 | 7.1 | 11 | 38.5 | – |
| CCOC(=O)C1=C(CNCc2cn(CCOCCOCCOCCOCCOCCn3cc(CNC(=O)C(=O)c4c(C)c(C(=O)Nc5ccc(F)c(F)c5)n(C)c4C)nn3)nn2)NC(c2nccs2)=NC1c1ccc(F)cc1Br (stereo not drawn) [Compound 50, Ethyl 4-(2-bromo-4-fluorophenyl)-6-((((1-(17-(4-((2-(5-((3,4-difluorophenyl)carbamoyl)-1,2,4-trimethyl-1H-pyrrol-3-yl)-2-oxoacetamido)methyl)-1H-1,2,3-triazol-1-yl)-3,6,9,12,15-pentaoxaheptadecyl)-1H-1,2,3-triazol-4-yl)methyl)amino)methyl)-2-(thiazol-2-yl)-1,4-dihydropyrimidine-5-carboxylate] | 0.1 to 1 | 1 to 10 | > 100 | 27 | 99 | > 100 | – |
| Cc1c(C(=O)C(=O)NCCCCCCCCO)c(C)n(C)c1C(=O)Nc1ccc(F)c(F)c1 [Compound 60, N-(3,4-Difluorophenyl)-4-(2-(8-hydroxyoctylamino)-2-oxoacetyl)-1,3,5-trimethyl-1H-pyrrole-2-carboxamide] | 0.01 to 0.1 | 0.1 to 1 | 14 | 4 | 36 | 63 | – |

From US20230056135A1, “MONOMER AND MULTIMERIC ANTI-HBV AGENTS” (priority 2018, published 2023)
